Measured values taken from patent US9695155B2, “Herbicidal substituted pyrimidinyloxy benzene compounds” (E. I. DU PONT DE NEMOURS AND COMPANY, priority 2013, dated 2017).

What was measured:
corn [1] = assay: Test A postemergence; format: in vivo, Zea mays; details: 0 to 100 scale where 0 is no effect and 100 is complete control
In short: (§1)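 Compounds in non-phytotoxic solvent with surfactant applied as soil spray preemergence, or postemergence to plants 2-10 cm at one- to two-leaf stage, in loam/sand. After approximately 10 days in greenhouse, injury rated visually versus untreated controls, 0 (no effect) to 100 (complete control).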

velvetleaf = assay: Test C preemergence; format: in vivo, Abutilon theophrasti; details: for Velvetleaf plant response rating: preemergence; for Plant response rating, Velvetleaf: Preemergence, 31 g ai/ha, scale 0 to 100, 0 no effect, 100 complete control
In short: (§2)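 Sown in loam/sand → sprayed pre-emergence; or grown to 1–4 leaves in peat mix → sprayed post-emergence. Same solvent/surfactant formulation both ways. Greenhouse 13–15 d. Score 0–100 visual.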

ragweed [2] = assay: Test C preemergence; format: in vivo, Ambrosia elatior; details: for Ragweed plant response rating: preemergence; for Plant response rating, Ragweed: Preemergence, 31 g ai/ha, scale 0 to 100, 0 no effect, 100 complete control
In short: as §2

galium = assay: Test C preemergence; format: in vivo, Galium aparine; details: for Galium plant response rating: preemergence; for Plant response rating, Galium: Preemergence, 31 g ai/ha, scale 0 to 100, 0 no effect, 100 complete control
In short: as §2

morningglory [3] = assay: Test C postemergence; format: in vivo, Ipomoea coccinea; details: for Plant response rating, Morningglory: scale 0 to 100 (0 no effect, 100 complete control)
In short: as §2

large (Lg) crabgrass = assay: Test C postemergence; format: in vivo, Digitaria sanguinalis; details: for Crabgrass, Large plant response rating: 16 g ai/ha; for Crabgrass, Large plant response rating / Plant response rating, Crabgrass, Large: scale 0 to 100 (0 no effect, 100 complete control)
In short: as §2

wheat = assay: Test A preemergence; format: in vivo, Triticum aestivum; details: 125 g ai/ha, 0 to 100 scale where 0 is no effect and 100 is complete control
In short: as §1

waterhemp = assay: Test C postemergence; format: in vivo, Amaranthus rudis; details: for Plant response rating, Waterhemp: scale 0 to 100 (0 no effect, 100 complete control)
In short: as §2

lambsquarters [4] = assay: Test C postemergence; format: in vivo, Chenopodium album; details: for Plant response rating, Lambsquarters: scale 0 to 100 (0 no effect, 100 complete control)
In short: as §2

ragweed [5] = assay: Test C postemergence; format: in vivo, Ambrosia elatior; details: for Plant response rating, Ragweed: scale 0 to 100 (0 no effect, 100 complete control)
In short: as §2

giant foxtail [6] = assay: Test C postemergence; format: in vivo, Setaria faberii; details: for Foxtail, Giant plant response rating: 16 g ai/ha; for Foxtail, Giant plant response rating / Plant response rating, Foxtail, Giant: scale 0 to 100 (0 no effect, 100 complete control)
In short: as §2

pigweed [7] = assay: Test A postemergence; format: in vivo, Amaranthus retroflexus; details: 0 to 100 scale where 0 is no effect and 100 is complete control
In short: as §1

giant foxtail [8] = assay: Test A postemergence; format: in vivo, Setaria faberii; details: 0 to 100 scale where 0 is no effect and 100 is complete control
In short: as §1

corn [9] = assay: Test C preemergence; format: in vivo, Zea mays; details: for Corn plant response rating: preemergence; for Plant response rating, Corn: Preemergence, 31 g ai/ha, scale 0 to 100, 0 no effect, 100 complete control
In short: as §2

lambsquarters [10] = assay: Test C preemergence; format: in vivo, Chenopodium album; details: for Lambsquarters plant response rating: preemergence; for Plant response rating, Lambsquarters: Preemergence, 31 g ai/ha, scale 0 to 100, 0 no effect, 100 complete control
In short: as §2

soybean = assay: Test C postemergence; format: in vivo, Glycine max; details: for Plant response rating, Soybean: scale 0 to 100 (0 no effect, 100 complete control)
In short: as §2

pigweed [11] = assay: Test C postemergence; format: in vivo, Amaranthus retroflexus; details: for Plant response rating, Pigweed: scale 0 to 100 (0 no effect, 100 complete control)
In short: as §2

morningglory [12] = assay: Test C preemergence; format: in vivo, Ipomoea coccinea; details: for Morningglory plant response rating: preemergence; for Plant response rating, Morningglory: Preemergence, 31 g ai/ha, scale 0 to 100, 0 no effect, 100 complete control
In short: as §2

[13] = 16 g ai/ha, scale 0 to 100 (0 no effect, 100 complete control)
[14] = 62 g ai/ha, scale 0 (no effect) to 100 (complete control)
[15] = 125 g ai/ha, scale 0 (no effect) to 100 (complete control)
[16] = Postemergence, 31 g ai/ha, 13 to 15 days
[17] = postemergence, visual rating, 13 to 15 days
[18] = 125 g ai/ha, postemergence, visual rating

CCOc1cnn(-c2c(C#N)cccc2Oc2ncc(Cl)cn2)c1 [Compound 92]
Plant response rating, Corn (corn [1]; 125 g ai/ha): 50
Plant response rating, Corn (corn [1]; 500 g ai/ha): 80
Velvetleaf plant response rating (velvetleaf; [13]): 30
Velvetleaf plant response rating (velvetleaf; [14]): 100
Velvetleaf plant response rating (velvetleaf; [15]): 100
Plant response rating, Velvetleaf (velvetleaf): 90
Ragweed plant response rating (ragweed [2]; [13]): 10
Ragweed plant response rating (ragweed [2]; [14]): 50
Ragweed plant response rating (ragweed [2]; [15]): 85
Plant response rating, Ragweed (ragweed [2]): 5
Galium plant response rating (galium; [13]): 80
Galium plant response rating (galium; [14]): 95
Galium plant response rating (galium; [15]): 98
Plant response rating, Galium (galium): 85
Plant response rating (0 to 100), Morningglory (morningglory [3]; 125 g ai/ha, postemergence): 85
Plant response rating, Morningglory (morningglory [3]; [16]): 85
Plant response rating, Morningglory (morningglory [3]; Postemergence, 62 g ai/ha): 90
Crabgrass, Large plant response rating (large (Lg) crabgrass; [17]): 5
Plant response rating (0 to 100), Crabgrass, Large (large (Lg) crabgrass; 125 g ai/ha, postemergence): 10
Plant response rating, Crabgrass, Large (large (Lg) crabgrass; [16]): 5
Plant response rating, Crabgrass, Large (large (Lg) crabgrass; Postemergence, 62 g ai/ha): 5
Plant response rating, Wheat (wheat): 0
Plant response rating (0 to 100), Waterhemp (waterhemp; 125 g ai/ha, postemergence): 80
Plant response rating, Waterhemp (waterhemp; [16]): 45
Plant response rating, Waterhemp (waterhemp; Postemergence, 62 g ai/ha): 75
Plant response rating (0 to 100), Lambsquarters (lambsquarters [4]; 125 g ai/ha, postemergence): 75
Plant response rating, Lambsquarters (lambsquarters [4]; [16]): 35
Plant response rating, Lambsquarters (lambsquarters [4]; Postemergence, 62 g ai/ha): 40
Plant response rating (0 to 100), Ragweed (ragweed [5]; 125 g ai/ha, postemergence): 55
Plant response rating, Ragweed (ragweed [5]; [16]): 40
Plant response rating, Ragweed (ragweed [5]; Postemergence, 62 g ai/ha): 50
Foxtail, Giant plant response rating (giant foxtail [6]; [17]): 5
Plant response rating (0 to 100), Foxtail, Giant (giant foxtail [6]; 125 g ai/ha, postemergence): 10
Plant response rating, Foxtail, Giant (giant foxtail [6]; [16]): 5
Plant response rating, Foxtail, Giant (giant foxtail [6]; Postemergence, 62 g ai/ha): 5
Plant response rating, Pigweed (pigweed [7]; 125 g ai/ha): 100
Plant response rating, Pigweed (pigweed [7]; 500 g ai/ha): 100
Plant response rating, Foxtail, Giant (giant foxtail [8]; 125 g ai/ha): 80
Plant response rating, Foxtail, Giant (giant foxtail [8]; 500 g ai/ha): 90
Corn plant response rating (corn [9]; [13]): 0
Corn plant response rating (corn [9]; [14]): 5
Corn plant response rating (corn [9]; [15]): 65
Plant response rating, Corn (corn [9]): 0
Lambsquarters plant response rating (lambsquarters [10]; [13]): 65
Lambsquarters plant response rating (lambsquarters [10]; [14]): 100
Lambsquarters plant response rating (lambsquarters [10]; [15]): 98
Plant response rating, Lambsquarters (lambsquarters [10]): 98
Plant response rating (0 to 100), Soybean (soybean; 125 g ai/ha, postemergence): 95
Plant response rating, Soybean (soybean; [16]): 70
Plant response rating, Soybean (soybean; Postemergence, 62 g ai/ha): 90
Plant response rating (0 to 100), Pigweed (pigweed [11]; 125 g ai/ha, postemergence): 75
Plant response rating, Pigweed (pigweed [11]; [16]): 60
Plant response rating, Pigweed (pigweed [11]; Postemergence, 62 g ai/ha): 55
Morningglory plant response rating (morningglory [12]; [13]): 10
Morningglory plant response rating (morningglory [12]; [14]): 98
Morningglory plant response rating (morningglory [12]; [15]): 98
Plant response rating, Morningglory (morningglory [12]): 25

N#Cc1cnn(-c2c(C#N)cccc2Oc2ncc(F)cn2)c1 [Compound 111]
Plant response rating, Corn (corn [1]; 125 g ai/ha): 30
Plant response rating, Corn (corn [1]; 500 g ai/ha): 90
Velvetleaf plant response rating (velvetleaf; [13]): 60
Velvetleaf plant response rating (velvetleaf; [14]): 90
Velvetleaf plant response rating (velvetleaf; [15]): 100
Plant response rating, Velvetleaf (velvetleaf): 60
Ragweed plant response rating (ragweed [2]; [13]): 10
Ragweed plant response rating (ragweed [2]; [14]): 100
Ragweed plant response rating (ragweed [2]; [15]): 100
Plant response rating, Ragweed (ragweed [2]): 50
Galium plant response rating (galium; [13]): 90
Galium plant response rating (galium; [14]): 100
Galium plant response rating (galium; [15]): 75
Plant response rating, Galium (galium): 100
Plant response rating, Morningglory (morningglory [3]; [18]): 98
Plant response rating, Morningglory (morningglory [3]; Postemergence, 62 g ai/ha): 80
Crabgrass, Large plant response rating (large (Lg) crabgrass; [17]): 5
Plant response rating, Crabgrass, Large (large (Lg) crabgrass; [18]): 35
Plant response rating, Crabgrass, Large (large (Lg) crabgrass; Postemergence, 62 g ai/ha): 10
Plant response rating, Wheat (wheat): 0
Plant response rating, Waterhemp (waterhemp; [18]): 90
Plant response rating, Waterhemp (waterhemp; Postemergence, 62 g ai/ha): 80
Plant response rating, Lambsquarters (lambsquarters [4]; [18]): 90
Plant response rating, Lambsquarters (lambsquarters [4]; Postemergence, 62 g ai/ha): 80
Plant response rating, Ragweed (ragweed [5]; [18]): 90
Plant response rating, Ragweed (ragweed [5]; Postemergence, 62 g ai/ha): 70
Foxtail, Giant plant response rating (giant foxtail [6]; [17]): 20
Plant response rating, Foxtail, Giant (giant foxtail [6]; [18]): 65
Plant response rating, Foxtail, Giant (giant foxtail [6]; Postemergence, 62 g ai/ha): 35
Plant response rating, Pigweed (pigweed [7]; 500 g ai/ha): 100
Plant response rating, Foxtail, Giant (giant foxtail [8]; 125 g ai/ha): 80
Plant response rating, Foxtail, Giant (giant foxtail [8]; 500 g ai/ha): 90
Corn plant response rating (corn [9]; [13]): 5
Corn plant response rating (corn [9]; [14]): 5
Corn plant response rating (corn [9]; [15]): 65
Plant response rating, Corn (corn [9]): 5
Lambsquarters plant response rating (lambsquarters [10]; [13]): 50
Lambsquarters plant response rating (lambsquarters [10]; [14]): 100
Lambsquarters plant response rating (lambsquarters [10]; [15]): 100
Plant response rating, Lambsquarters (lambsquarters [10]): 100
Plant response rating, Soybean (soybean; [18]): 95
Plant response rating, Soybean (soybean; Postemergence, 62 g ai/ha): 80
Plant response rating, Pigweed (pigweed [11]; [18]): 85
Plant response rating, Pigweed (pigweed [11]; Postemergence, 62 g ai/ha): 85
Morningglory plant response rating (morningglory [12]; [13]): 20
Morningglory plant response rating (morningglory [12]; [14]): 85
Morningglory plant response rating (morningglory [12]; [15]): 100
Plant response rating, Morningglory (morningglory [12]): 45
